# Measured values: patent US12209084B2, “Serotonin 5-HT2B inhibitory compounds” (Zoetis Services LLC, priority 2021, dated 2025)
# Target: T1, canine 5-HT2B receptor (Canis lupus familiaris, UniProt Q50DZ8)
# T1 construct: expressed in transfected cells; host or cells: CHO-K1
# Assay: Canine 5-HT2B (c5-HT2B) in-vitro assay (FLIPR calcium response, antagonist mode)
# Assay type: cell-based
# Conditions: CHO-K1 cells stably expressing the canine 5-HT2B receptor; intracellular calcium response (FLIPR Calcium 5); inhibition of EC80 concentration of serotonin after 10 minute antagonist incubation; read-out: Compound Receptor IC50 Affinities for c5-HT2B
# Protocol: Canine 5-HT2B (c5-HT2B) In-Vitro Assay
# CHO-K1 cells stably expressing the canine 5-HT2B receptor were seeded at 20,000 cells per well in 20 μl culture media (DMEM with GlutaMAX™ high glucose+5% dialyzed FBS+10 mM HEPES+1×MEM Non-Essential Amino Acids of a 384-well black plate with clear bottom for at least 18 hours at 37° C. and 5% CO2. The cell plate was loaded with 20 μl/well of the FLIPR© Calcium 5 Assay kit prepared in HBSS containing calcium and magnesium supplemented with 20 mM HEPES and 5 mM Probenecid at pH 7.4 and incubated at 37° C. and 5% CO2 for 30 minutes and then an additional 30 minutes at room temperature. The intracellular calcium response was measured using the FLIPR® Tetra instrument measuring the kinetic response of the calcium 5 dye at an excitation wavelength of 470-495 nm and emission wavelength of 515-575 nm at room temperature. The cells were initially challenged with a 5× concentration of the antagonist (10 μl/well) after an initial baseline recording and the calcium response was recorded for almost 2 minutes. After the completion of the initial antagonist challenge, the cell plate was incubated at room temperature in the FLIPR Tetra® instrument for 10 minutes. Finally, a second kinetic assay was performed after the 10 minute incubation at room temperature to measure the inhibitory response of the EC80 concentration of serotonin (15 μl/well) after an initial baseline recording. The IC50 concentration was determined for each antagonist tested.
# In accordance with the in-vitro assay described above, the IC50 affinities for the c5-HT2B receptors for the compounds of the invention are provided in Table 1.
# T1 sequence (Q50DZ8 1-434): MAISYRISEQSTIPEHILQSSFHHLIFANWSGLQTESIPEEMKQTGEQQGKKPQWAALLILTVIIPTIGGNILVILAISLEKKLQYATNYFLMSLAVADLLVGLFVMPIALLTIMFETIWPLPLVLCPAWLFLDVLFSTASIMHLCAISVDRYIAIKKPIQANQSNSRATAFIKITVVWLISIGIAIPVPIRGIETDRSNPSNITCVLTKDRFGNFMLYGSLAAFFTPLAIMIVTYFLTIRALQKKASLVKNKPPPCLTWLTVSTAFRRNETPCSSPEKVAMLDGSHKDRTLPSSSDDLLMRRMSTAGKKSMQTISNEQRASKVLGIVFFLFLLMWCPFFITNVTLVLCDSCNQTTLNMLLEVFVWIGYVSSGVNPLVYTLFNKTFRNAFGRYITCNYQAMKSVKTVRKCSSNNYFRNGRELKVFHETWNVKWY
row,SMILES,IC50 [nM]
1,"O=C(N[C@@H]1C[C@H]2CC[C@@H](C1)N2Cc1ccns1)c1ccc2cc[nH]c2c1 [Example 25, N-((1R,3s,5S)-8-(isothiazol-5-ylmethyl)-8-azabicyclo[3.2.1]octan-3-yl)-1H-indole-6-carboxamide]",1.4
2,"O=C(N[C@@H]1C[C@H]2CC[C@@H](C1)N2Cc1ccccc1)c1ccc2ccoc2c1 [Example 24, N-((1R,3s,5S)-8-benzyl-8-azabicyclo[3.2.1]octan-3-yl)benzofuran-6-carboxamide]",0.5
3,"O=C(N[C@@H]1C[C@H]2CC[C@@H](C1)N2Cc1ccccc1)c1ccc2cc[nH]c2c1 [Example 1, N-((1R,3s,5S)-8-benzyl-8-azabicyclo[3.2.1]octan-3-yl)-1H-indole-6-carboxamide]",0.41
4,"O=C(N[C@@H]1C[C@H]2CC[C@@H](C1)N2Cc1ccccc1)c1ccc2ccn(-c3ccc(C(F)(F)F)cc3)c2c1 [Example 21, N-((1R,3s,5S)-8-benzyl-8-azabicyclo[3.2.1]octan-3-yl)-1-(4-(trifluoromethyl)phenyl)-1H-indole-6-carboxamide]",1100
5,"O=C(N[C@@H]1C[C@H]2CC[C@@H](C1)N2Cc1ccccc1)c1ccc2cn[nH]c2c1 [Example 10, N-((1R,3s,5S)-8-benzyl-8-azabicyclo[3.2.1]octan-3-yl)-1H-indazole-6-carboxamide]",432
6,"Cc1cc2ccc(C(=O)N[C@@H]3C[C@H]4CC[C@@H](C3)N4Cc3ccccc3)cc2[nH]1 [Example 8, N-((1R,3s,5S)-8-benzyl-8-azabicyclo[3.2.1]octan-3-yl)-2-methyl-1H-indole-6-carboxamide]",4
7,"O=C(N[C@@H]1C[C@H]2CC[C@@H](C1)N2Cc1ccc(Cl)cc1)c1ccc2cc[nH]c2c1 [Example 5, N-((1R,3s,5S)-8-(4-chlorobenzyl)-8-azabicyclo[3.2.1]octan-3-yl)-1H-indole-6-carboxamide]",0.27
8,"O=C(N[C@@H]1C[C@H]2CC[C@@H](C1)N2Cc1cccnc1)c1ccc2cc[nH]c2c1 [Example 13, N-((1R,3s,5S)-8-(pyridin-3-ylmethyl)-8-azabicyclo[3.2.1]octan-3-yl)-1H-indole-6-carboxamide]",663
9,"O=C(N[C@@H]1C[C@H]2CC[C@@H](C1)N2Cc1ccccc1)c1ccc2ccn(-c3ccncc3)c2c1 [Example 18, N-((1R,3s,5S)-8-benzyl-8-azabicyclo[3.2.1]octan-3-yl)-1-(pyridin-4-yl)-1H-indole-6-carboxamide]",538
10,"O=C(N[C@@H]1C[C@H]2CC[C@@H](C1)N2Cc1ccc2[nH]ccc2c1)c1ccc2cc[nH]c2c1 [Example 6, N-((1R,3s,5S)-8-((1H-indol-5-yl)methyl)-8-azabicyclo[3.2.1]octan-3-yl)-1H-indole-6-carboxamide]",0.31
11,"N#Cc1c[nH]c2cc(C(=O)N[C@@H]3C[C@H]4CC[C@@H](C3)N4Cc3ccccc3)ccc12 [Example 19, N-((1R,3s,5S)-8-benzyl-8-azabicyclo[3.2.1]octan-3-yl)-3-cyano-1H-indole-6-carboxamide]",144
12,"O=C(N[C@@H]1C[C@H]2CC[C@@H](C1)N2c1ccccc1)c1ccc2cc[nH]c2c1 [Example 17, N-((1R,3s,5S)-8-phenyl-8-azabicyclo[3.2.1]octan-3-yl)-1H-indole-6-carboxamide]",8280
13,"O=C(N[C@@H]1C[C@H]2CC[C@@H](C1)N2Cc1ccc(C(F)(F)F)cc1)c1ccc2cc[nH]c2c1 [Example 11, N-((1R,3s,5S)-8-(4-(trifluoromethyl)benzyl)-8-azabicyclo[3.2.1]octan-3-yl)-1H-indole-6-carboxamide]",92.3
14,"O=C(N[C@@H]1C[C@H]2CC[C@@H](C1)N2Cc1ccsn1)c1ccc2cc[nH]c2c1 [Example 26, N-((1R,3s,5S)-8-(isothiazol-3-ylmethyl)-8-azabicyclo[3.2.1]octan-3-yl)-1H-indole-6-carboxamide]",17.7
15,"Cc1csc(CN2[C@@H]3CC[C@H]2C[C@H](NC(=O)c2ccc4cc[nH]c4c2)C3)n1 [Example 28, N-((1R,3s,5S)-8-((4-methylthiazol-2-yl)methyl)-8-azabicyclo[3.2.1]octan-3-yl)-1H-indole-6-carboxamide]",200
16,"O=C(N[C@@H]1C[C@H]2CC[C@@H](C1)N2Cc1cnccn1)c1ccc2cc[nH]c2c1 [Example 15, N-((1R,3s,5S)-8-(pyrazin-2-ylmethyl)-8-azabicyclo[3.2.1]octan-3-yl)-1H-indole-6-carboxamide]",3700
17,"O=C(N[C@@H]1C[C@H]2CC[C@@H](C1)N2Cc1ccccc1)c1ccc2ccn(-c3ccc(F)cc3)c2c1 [Example 22, N-((1R,3s,5S)-8-benzyl-8-azabicyclo[3.2.1]octan-3-yl)-1-(4-fluorophenyl)-1H-indole-6-carboxamide]",32
18,"O=C(N[C@@H]1C[C@H]2CC[C@@H](C1)N2Cc1ccccc1)c1ccc2cc[nH]c2n1 [Example 2, N-((1R,3s,5S)-8-benzyl-8-azabicyclo[3.2.1]octan-3-yl)-1H-pyrrolo[2,3-b]pyridine-6-carboxamide]",0.15
19,"O=C(N[C@@H]1C[C@H]2CC[C@@H](C1)N2Cc1ccccc1)c1ccc2c3c([nH]c2c1)CCCC3 [Example 9, N-((1R,3s,5S)-8-benzyl-8-azabicyclo[3.2.1]octan-3-yl)-2,3,4,9-tetrahydro-1H-carbazole-7-carboxamide]",112

# Next, values leading:
row,IC50 [nM],SMILES
1,1.53,"O=C(N[C@@H]1C[C@H]2CC[C@@H](C1)N2Cc1ccc(Cl)cc1)c1ccc2cc[nH]c2n1 [Example 3, N-((1R,3s,5S)-8-(4-chlorobenzyl)-8-azabicyclo[3.2.1]octan-3-yl)-1H-pyrrolo[2,3-b]pyridine-6-carboxamide]"
2,0.12,"O=C(N[C@@H]1C[C@H]2CC[C@@H](C1)N2Cc1ccc(F)cc1)c1ccc2cc[nH]c2c1 [Example 4, N-((1R,3s,5S)-8-(4-fluorobenzyl)-8-azabicyclo[3.2.1]octan-3-yl)-1H-indole-6-carboxamide]"
3,2800,"O=C(N[C@@H]1C[C@H]2CC[C@@H](C1)N2Cc1ccncc1)c1ccc2cc[nH]c2c1 [Example 14, N-((1R,3s,5S)-8-(pyridin-4-ylmethyl)-8-azabicyclo[3.2.1]octan-3-yl)-1H-indole-6-carboxamide]"
4,1.3,"O=C(N[C@@H]1C[C@H]2CC[C@@H](C1)N2Cc1cccs1)c1ccc2cc[nH]c2c1 [Example 7, N-((1R,3s,5S)-8-(thiophen-2-ylmethyl)-8-azabicyclo[3.2.1]octan-3-yl)-1H-indole-6-carboxamide]"
5,108,"O=C(N[C@@H]1C[C@H]2CC[C@@H](C1)N2Cc1nccs1)c1ccc2cc[nH]c2c1 [Example 27, N-((1R,3s,5S)-8-(thiazol-2-ylmethyl)-8-azabicyclo[3.2.1]octan-3-yl)-1H-indole-6-carboxamide]"
6,57,"O=C(N[C@@H]1C[C@H]2CC[C@@H](C1)N2Cc1ccccc1)c1ccc2ccn(-c3ccccc3)c2c1 [Example 23, N-((1R,3s,5S)-8-benzyl-8-azabicyclo[3.2.1]octan-3-yl)-1-phenyl-1H-indole-6-carboxamide]"
7,8700,"Cn1ccnc1CN1[C@@H]2CC[C@H]1C[C@H](NC(=O)c1ccc3cc[nH]c3c1)C2 [Example 16, N-((1R,3s,5S)-8-((1-methyl-1H-imidazol-2-yl)methyl)-8-azabicyclo[3.2.1]octan-3-yl)-1H-indole-6-carboxamide]"
8,21,"O=C(N[C@@H]1C[C@H]2CC[C@@H](C1)N2Cc1ccccc1)c1ccc2cc(C(F)(F)F)[nH]c2c1 [Example 20, N-((1R,3s,5S)-8-benzyl-8-azabicyclo[3.2.1]octan-3-yl)-2-(trifluoromethyl)-1H-indole-6-carboxamide]"
9,54.3,"O=C(N[C@@H]1C[C@H]2CC[C@@H](C1)N2Cc1ccccn1)c1ccc2cc[nH]c2c1 [Example 12, N-((1R,3s,5S)-8-(pyridin-2-ylmethyl)-8-azabicyclo[3.2.1]octan-3-yl)-1H-indole-6-carboxamide]"
